From patent publication US6069132A, “Phosphazole compounds” (priority 1997, dated 2000)
“Also recorded” adds a separate entry of the source. Where two headings read alike, the source gives them in different places.

Columns and labels:
Assay type in all cases: cell-based, human
[1] = system: MRC-5 cells; assay: Cytotoxicity on growing MRC-5 cells (MTS)
[2] = system: PBMCs; assay: Viability of PBMCs exposed to test compound; details: 48 hours of exposure
[3] = Viability of PBMCs exposed to test compound; details: human, pbmcs, 48 h, +LPS, read-out: % Viable Cells
[4] = system: TNFα; assay: Inhibition of TNFα in LPS-stimulated PBMCs; details: for inhibition at 10 µg/mL / inhibition at 50 µg/mL / inhibition at 100 µg/mL / inhibition at 250 µg/mL: Homo sapiens, PBMC; for inhibition at 10 µg/mL: 10 μg/ml; for inhibition at 50 µg/mL: 50 μg/ml; for inhibition at 100 µg/mL: 100 μg/ml; for inhibition at 250 µg/mL: 250 μg/ml
Method: Primary cell assays. Primary human peripheral blood mononuclear cells (PBMCS) were isolated as described by Ojwang et al. (114). Isolated monocytes were added to 24-well cluster plates (Costar, Cambridge, Mass.) at a concentration of 1×10^5 viable cells per well. Culture medium or test material dilutions in culture medium were added to the wells, the plates were then incubated at 37° C. for one hour. […] The plates were incubated an additional 4, 24 or 48 hours. The supernatant fluids were then harvested and centrifuged to pellet cells or cellular debris, and the supernatant fluids were stored at -70° C. until they were assayed for the presence of TNFα using a commercially available ELISA kit, such as that described in Example 46.

[5] = system: THP-1 cells; assay: Cytotoxicity on growing THP-1 cells (MTS assay); details: 4 days (FIG. 1A)
Method: Cytotoxicity Analysis. The cytotoxicity of the compounds were assayed using the CellTiter 96™ Aqueous Non-Radioactive Cell Proliferation (MTS) Assay kit obtained from Promega (Madison, Wis.) following the instructions provided by the supplier. The viable cell number was determined by trypan blue staining and cells (THP-1) were resuspended in PRMI supplemented with 10% FBS (GIBCO). Eighty microliters of cell suspension (1.7×10^4cells/well) was dispensed onto a 96-well microtiter plates. At this time 20 μL of drug (or control) was added to appropriate wells. Each concentration was assayed in quadruplicate. The plates were incubated at 37° C. in a humidified 5% CO2 atmosphere for 4 days and MTS assay […] for each concentration and the data obtained was used to calculate TC50 (the concentration of the compound necessary to inhibit the cell growth by 50%) for each compound.

Nc1ncnc2pc[nH]c12 (stereo not shown) [T70241, 7-amino-1H-1,3-azaphospholo[4,5-d]pyrimidine]
toxic effect on growing MRC-5 cells ([1]; FIG. 9A, four day period): slight toxic effect on growing MRC-5 cells | TC50 Growing MRC-5 ([1]; Table 4, 50% inhibition of logphase growing cells, 5760 min): > 50 µg/mL | PBMC viability / toxicity [2]: cell viability was not affected; also recorded: minimal | viability at 48 h ([3]; 10 μg/ml): 104% | viability at 48 h ([3]; 50 μg/ml): 83% | viability at 48 h ([3]; 100 μg/ml): 94% | viability at 48 h ([3]; 250 μg/ml): 88% | TNFα production in PBMCs ([4]; 48 hours post-LPS induction): significantly reduce the levels of TNFα production in the PBMCs | inhibition at 10 µg/mL ([4]; 4 h): 0% | inhibition at 10 µg/mL ([4]; 24 h): -3% | inhibition at 10 µg/mL ([4]; 48 h): -9% | inhibition at 50 µg/mL ([4]; 4 h): 50% | inhibition at 50 µg/mL ([4]; 24 h): 58% | inhibition at 50 µg/mL ([4]; 48 h): 51% | inhibition at 100 µg/mL ([4]; 4 h): 76% | inhibition at 100 µg/mL ([4]; 24 h): 81% | inhibition at 100 µg/mL ([4]; 48 h): 79% | inhibition at 250 µg/mL ([4]; 4 h): 76% | inhibition at 250 µg/mL ([4]; 24 h): 84% | inhibition at 250 µg/mL ([4]; 48 h): 82% | effect on THP-1 growth ([5]; higher concentrations): stimulates THP-1 growth at higher concentrations | toxic effect on THP-1 cells ([5]; up to 1 mg/mL): no toxic effect on the THP-1 cells
